Article PMC8788354 (Journal of Enzyme Inhibition and Medicinal Chemistry, 2022)
Read-outs that look alike come from different tables or passages of the source. Numbered stars: 1 amine (or outer) side, 2 acyl side, 3 side chain; on linkers, the order of the positions; unused ones are H or OH. Bridge positions count the residues as written; N and C are the ends. Square brackets hold non-standard residues; d marks the D form. Peptide text beside a SMILES is read from it. I, II: the chains in the order shown. Actinocin(9to1) = Cc1c2oc3c(C)ccc(C(=O)[*:1])c3nc-2c(C(=O)[*:2])c(N)c1=O; NMeV = CN[C@H](C(=O)O)C(C)C; Sar = CNCC(=O)O

Columns and labels:
[1] = tested on: U-87MG cells (glioblastoma cell line); experiment: cells; type: cell-based, human; settings: SRB assay, 72 h exposure, read-out: Anticancer activity IC50 (nM) ± SD, U-87
[2] = tested on: SKBR-3 (human breast cancer cell line); experiment: cells; type: cell-based; settings: for IC50: SRB assay, 72 h exposure, read-out: Anticancer activity IC50 (nM) ± SD, SKBR-3
in vitro = settings: human
[3] = tested on: PC-3 (human prostate cancer cell line); experiment: cells; type: cell-based; settings: for IC50: SRB assay, 72 h exposure, read-out: Anticancer activity IC50 (nM) ± SD, PC-3
[4] = tested on: SKOV-3 (ovarian cancer cell line); experiment: cells; type: cell-based, human; settings: for IC50: SRB assay, 72 h exposure, read-out: Anticancer activity IC50 (nM) ± SD, SKOV-3
[5] = Toxicity IC50 (nM) ± SD, HDF, healthy cell line HDF, SRB assay, 72 h exposure

Row | Structure (SMILES) | IC50 ([1]; Homo sapiens, U-87 MG) [nM] | IC50 ([2]; Homo sapiens, SK-BR-3, 72 h) [nM] | IC50 ([3]; Homo sapiens) [nM] | IC50 ([4]; Homo sapiens, SK-OV-3) [nM] | IC50 (in vitro; [5]) [nM] | also measured
1 | Cc1c2oc3c(C)ccc(C(=O)N[C@@H]4C(=O)N[C@H](C(C)C)C(=O)N5CCC[C@H]5C(=O)N(C)CC(=O)N(C)[C@@H](C(C)C)C(=O)O[C@@H]4C)c3nc-2c(C(=O)N[C@@H]2C(=O)N[C@H](C(C)C)C(=O)N3CCC[C@H]3C(=O)N(C)CC(=O)N(C)[C@@H](C(C)C)C(=O)O[C@@H]2C)c(N)c1=O [ActD, actinomycin D, reference compound] (I: T[dV]P[Sar][NMeV] / II: T[dV]P[Sar][NMeV]; ester I:1-I:C, II:1-II:C; linker I:N-II:N via Actinocin(9to1)) | 1610 ± 90 |  |  |  |  | IC50 ([2]; Homo sapiens, SK-BR-3): 1140 ± 60 nM
2 | Nc1ccn([C@@H]2O[C@H](CO)[C@@H](O)[C@@H]2O)c(=O)n1 [C, cytarabine, reference compound] | 850 ± 31 | 870 ± 10 | 810 ± 10 | 990 ± 110 |  | IC50 at 72 h (in vitro; Human Dermal Fibroblasts (HDF) cells, Toxicity IC50 (nM) ± SD, HDF, healthy cell line HDF, SRB assay, 72 h exposure): 5940 ± 70 nM
3 | COc1cc2c(c(OC)c1OC)-c1ccc(OC)c(=O)cc1[C@@H](NC(C)=O)CC2 [Compound 1, colchicine, reference compound] |  |  |  |  |  | IC50 (in vitro): 2.37 ± 0.15 nM
4 | COc1cc2c(c(OC)c1OC)-c1ccc(=O)c(O)cc1[C@@H](NC(C)=O)CC2 [Compound 2, colchiceine, reference compound] |  |  |  |  |  | IC50 [1]: 1.26 ± 0.04 nM; IC50 [2]: 1.04 ± 0.07 nM; IC50 [3]: 1.37 ± 0.02 nM; IC50 [4]: 1.88 ± 0.02 nM
5 | COc1cc2c(c(OC)c1OC)-c1ccc(=O)c(OCc3ccccc3)cc1[C@@H](NC(C)=O)CC2 [Compound 3a] | 2.83 ± 0.06 | 2.04 ± 0.51 | 2.27 ± 0.04 | 2.19 ± 0.07 | 6.39 ± 1.04 | Selectivity index (SI), SKBR-3 ([2]; SI = IC50 HDF/IC50 SKBR-3): ~3
6 | COc1cc2c(c(OC)c1OC)-c1ccc(=O)c(OCc3ccc(I)cc3)cc1[C@@H](NC(C)=O)CC2 [Compound 3b] | 2.47 ± 0.91 | 2.55 ± 0.12 | 2.94 ± 0.08 | 2.13 ± 0.4 | 3.94 ± 0.27 | 
7 | COc1cc2c(c(OC)c1OC)-c1ccc(=O)c(OC/C=C/c3ccccc3)cc1[C@@H](NC(C)=O)CC2 [Compound 3c] | 3.38 ± 0.05 | 3.09 ± 0.02 | 3.11 ± 0.91 | 3.74 ± 0.18 | 5.24 ± 0.26 | 
8 | C=CCOc1cc2c(ccc1=O)-c1c(cc(OC)c(OC)c1OC)CC[C@@H]2NC(C)=O [Compound 3d] | 1.63 ± 0.04 | 1.09 ± 0.01 | 1.05 ± 0.01 | 1.68 ± 0.09 | 2.83 ± 0.05 | 
9 | C#CCOc1cc2c(ccc1=O)-c1c(cc(OC)c(OC)c1OC)CC[C@@H]2NC(C)=O [Compound 3f] | 1.14 ± 0.01 | 1.37 ± 0.02 | 1.05 ± 0.03 | 1.05 ± 0.07 | 2.83 ± 0.44 | Selectivity index (SI), PC-3 ([3]; SI = IC50 HDF/IC50 PC-3): ~2.7; Selectivity index (SI), SKOV-3 ([4]; SI = IC50 HDF/IC50 SKOV-3): ~2.7
10 | CCOC(=O)COc1cc2c(ccc1=O)-c1c(cc(OC)c(OC)c1OC)CC[C@@H]2NC(C)=O [Compound 3g] | 1.41 ± 0.03 | 1.31 ± 0.08 | 1.62 ± 0.29 | 1.37 ± 0.01 | 2.72 ± 0.03 | 
11 | C=CCCOc1cc2c(ccc1=O)-c1c(cc(OC)c(OC)c1OC)CC[C@@H]2NC(C)=O [Compound 3h] | 1.06 ± 0.03 | 1.04 ± 0.33 | 1.53 ± 0.21 | 1.99 ± 0.07 | 1.84 ± 0.11 | 
12 | COc1cc2c(c(OC)c1OC)-c1ccc(=O)c(OCCCN=[N+]=[N-])cc1[C@@H](NC(C)=O)CC2 [Compound 3i] | 1.88 ± 0.05 | 1.32 ± 0.05 | 1.43 ± 0.02 | 1.05 ± 0.02 | 2.85 ± 0.13 | 
13 | C=Cc1ccc(COc2cc3c(ccc2=O)-c2c(cc(OC)c(OC)c2OC)CC[C@@H]3NC(C)=O)cc1 [Compound 3j] | 4.55 ± 0.06 | 4.19 ± 0.62 | 4.59 ± 0.03 | 4.55 ± 0.07 | 5.38 ± 0.42 | 
14 | COc1cc2c(c(OC)c1OC)-c1ccc(OCc3ccccc3)c(=O)cc1[C@@H](NC(C)=O)CC2 [Compound 4a] | 2.08 ± 0.01 | 2.01 ± 0.02 | 2.26 ± 0.01 | 1.63 ± 0.03 | 4.12 ± 0.06 | 
15 | COc1cc2c(c(OC)c1OC)-c1ccc(OCc3ccc(I)cc3)c(=O)cc1[C@@H](NC(C)=O)CC2 [Compound 4b] | 2.85 ± 0.03 | 2.77 ± 0.19 | 2.41 ± 0.66 | 2.83 ± 0.26 | 4.12 ± 0.01 | 
16 | COc1cc2c(c(OC)c1OC)-c1ccc(OC/C=C/c3ccccc3)c(=O)cc1[C@@H](NC(C)=O)CC2 [Compound 4c] | 3.82 ± 0.22 | 3.46 ± 0.07 | 3.19 ± 0.01 | 3.05 ± 0.03 | 4.94 ± 0.15 | 
17 | C=CCOc1ccc2c(cc1=O)[C@@H](NC(C)=O)CCc1cc(OC)c(OC)c(OC)c1-2 [Compound 4d] | 1.78 ± 0.03 | 1.73 ± 0.11 | 1.71 ± 0.03 | 1.73 ± 0.07 | 2.39 ± 0.17 | 

Row | Structure (SMILES) | IC50 ([1]; Homo sapiens, U-87 MG) [nM] | IC50 ([2]; Homo sapiens, SK-BR-3, 72 h) [nM] | IC50 ([3]; Homo sapiens) [nM] | IC50 ([4]; Homo sapiens, SK-OV-3) [nM] | IC50 (in vitro; [5]) [nM] | also measured
18 | C/C=C/COc1ccc2c(cc1=O)[C@@H](NC(C)=O)CCc1cc(OC)c(OC)c(OC)c1-2 [Compound 4e] | 1.93 ± 0.02 | 1.97 ± 0.04 | 1.98 ± 0.05 | 1.92 ± 0.11 | 2.66 ± 0.03 | 
19 | C#CCOc1ccc2c(cc1=O)[C@@H](NC(C)=O)CCc1cc(OC)c(OC)c(OC)c1-2 [Compound 4f] | 1.06 ± 0.04 | 1.48 ± 0.09 | 1.46 ± 0.13 | 1.52 ± 0.02 | 1.85 ± 0.03 | 
20 | CCOC(=O)COc1ccc2c(cc1=O)[C@@H](NC(C)=O)CCc1cc(OC)c(OC)c(OC)c1-2 [Compound 4g] | 1.27 ± 0.01 | 1.28 ± 0.17 | 1.15 ± 0.03 | 1.06 ± 0.22 | 2.05 ± 0.02 | 
21 | COc1cc2c(c(OC)c1OC)-c1ccc(OCCCN=[N+]=[N-])c(=O)cc1[C@@H](NC(C)=O)CC2 [Compound 4i] | 1.19 ± 0.03 | 1.38 ± 0.03 | 1.49 ± 0.16 | 1.37 ± 0.09 | 2.58 ± 0.12 | 
22 | C=Cc1ccc(COc2ccc3c(cc2=O)[C@@H](NC(C)=O)CCc2cc(OC)c(OC)c(OC)c2-3)cc1 [Compound 4j] | 3.11 ± 0.03 | 3.22 ± 0.36 | 3.05 ± 0.01 | 3.01 ± 0.04 | 5.17 ± 0.28 | 
23 | COc1cc2c(c(OC)c1OC)-c1ccc(=O)c(OCc3cn(Cc4ccccc4)nn3)cc1[C@@H](NC(C)=O)CC2 [Compound 5a] | 3.74 ± 0.19 | 3.07 ± 0.11 | 3.21 ± 0.15 | 3.28 ± 0.06 | 5.28 ± 0.22 | 
24 | COc1cc2c(c(OC)c1OC)-c1ccc(=O)c(OCc3cn(Cc4ccc(C#N)cc4)nn3)cc1[C@@H](NC(C)=O)CC2 [Compound 5b] | 2.57 ± 0.13 | 2.07 ± 0.08 | 2.13 ± 0.02 | 2.88 ± 0.47 | 4.92 ± 0.51 | 
25 | COc1cc2c(c(OC)c1OC)-c1ccc(=O)c(OCc3cn(Cc4ccc([N+](=O)[O-])cc4)nn3)cc1[C@@H](NC(C)=O)CC2 [Compound 5c] | 2.04 ± 0.08 | 2.18 ± 0.02 | 2.09 ± 0.33 | 2.94 ± 0.71 | 3.12 ± 0.41 | 
26 | COc1cc2c(c(OC)c1OC)-c1ccc(=O)c(OCc3cn([C@@H]4O[C@H](COC(C)=O)[C@@H](OC(C)=O)[C@H](OC(C)=O)[C@H]4NC(C)=O)nn3)cc1[C@@H](NC(C)=O)CC2 [Compound 5d] | 6.11 ± 0.26 | 6.29 ± 0.25 | 6.39 ± 0.08 | 6.03 ± 0.19 | 7.99 ± 0.04 | 
27 | COc1cc2c(c(OC)c1OC)-c1ccc(=O)c(OCc3cn(C4CC(n5cc(C)c(=O)[nH]c5=O)OC4CO)nn3)cc1C(NC(C)=O)CC2 (stereo not shown) [Compound 5e] | 3.05 ± 0.01 | 3.71 ± 0.05 | 3.51 ± 0.09 | 3.74 ± 0.03 | 6.22 ± 0.32 | 
28 | COc1cc2c(c(OC)c1OC)-c1ccc(=O)c(OCc3cn(CCCNC4=C5C[C@@H](C)C[C@H](OC)[C@H](O)[C@@H](C)/C=C(\C)[C@H](OC(N)=O)[C@@H](OC)/C=C\C=C(/C)C(=O)NC(=CC4=O)C5=O)nn3)cc1[C@@H](NC(C)=O)CC2 [Compound 5f] | 8.25 ± 0.11 | 8.91 ± 0.17 | 8.38 ± 0.09 | 8.05 ± 0.58 | 10.4 ± 0.39 | 
29 | COc1cc2c(c(OC)c1OC)-c1ccc(OCc3cn(Cc4ccccc4)nn3)c(=O)cc1[C@@H](NC(C)=O)CC2 [Compound 6a] | 2.78 ± 0.05 | 2.33 ± 0.09 | 2.04 ± 0.44 | 2.79 ± 0.07 | 3.88 ± 0.14 | 
30 | COc1cc2c(c(OC)c1OC)-c1ccc(OCc3cn(Cc4ccc(C#N)cc4)nn3)c(=O)cc1[C@@H](NC(C)=O)CC2 [Compound 6b] | 3.74 ± 0.06 | 3.06 ± 0.03 | 3.15 ± 0.04 | 3.97 ± 0.12 | 5.83 ± 0.31 | 
31 | COc1cc2c(c(OC)c1OC)-c1ccc(OCc3cn(Cc4ccc([N+](=O)[O-])cc4)nn3)c(=O)cc1[C@@H](NC(C)=O)CC2 [Compound 6c] | 2.81 ± 0.18 | 2.88 ± 0.06 | 2.05 ± 0.03 | 2.42 ± 0.11 | 4.08 ± 0.26 | 
32 | COc1cc2c(c(OC)c1OC)-c1ccc(OCc3cn([C@@H]4O[C@H](COC(C)=O)[C@@H](OC(C)=O)[C@H](OC(C)=O)[C@H]4NC(C)=O)nn3)c(=O)cc1[C@@H](NC(C)=O)CC2 [Compound 6d] | 5.83 ± 0.15 | 5.21 ± 0.39 | 5.04 ± 0.02 | 5.93 ± 0.12 | 7.29 ± 0.41 | 
33 | CO[C@@]12[C@H](COC(N)=O)C3=C(C(=O)C(C)=C(N)C3=O)N1C[C@@H]1N[C@@H]12 [MitC, mitomycin C, reference compound] | 650 ± 40 |  |  |  |  | IC50 ([2]; Homo sapiens, SK-BR-3): 670 ± 10 nM
